Measured values published in patent publication US11680218B2, “Biodegradable lubricant with tailored hydrolytic stability and improved thermal stability through alkoxylation of glycerol” (Tetramer Technologies, LLC, priority 2018, dated 2023).

Key:
[1] = literature value, cited from earlier work
[2] = Differential scanning calorimetry (melt enthalpy, undercooling, percent solids index); format: physicochemical; settings: DSC, heating from solid, 5° C./min
Text: It is known in the art that alkoxylation has the potential to decrease the pour point of an ester. However, the current disclosure has observed a surprising decrease in the melting enthalpy and a marked reduction in the degree of undercooling. The degree of undercooling for a base oil indicates the increase in temperature required to fully melt an oil after crystallization has started. The degree of undercooling for the purpose of this disclosure is described as the difference between the temperature at which a material is fully melted on heating and the temperature at which the material begins to crystallize on cooling [Tmelt−Tonset=Undercool] as determined by differential scanning calorimetry (DSC) with a heating and cooling rate of 5° C./min. “Undercooling” and “degree of undercooling” can be used synonymously.
Oils with a lower undercooling require a smaller increase in temperature after crystallization to melt the oil and erase the oil “memory.” Shelby and Miller teach the concept of oil “memory” as a result of gels or crystals not fully dissociating even when above the melt point, so that on a second cooling cycle, gelation or crystal growth occurs much more quickly and at higher temperatures. If two oils have the same crystallization onset temperature, the oil with the lower undercooling will fully melt at a lower temperature and erase the oil “memory”. […] The effect of this is that glycerol esters and polyol esters must be heated substantially above the onset of crystallization in order to melt the oil before use. […] At 5° C. above the onset of crystallization temperature, 100% of Ex. 92 (glycerol ester) is solid; 31% of Ex 93 (PG3 ester) is solid; 18% of Ex. 94 (PG10 ester) is solid; and 81% of Ex 90 (TMP ester) is solid.
Examples 90, 92-94: Reductions in the enthalpy of melting are observed for propoxylated glycerol esters and TMP esters relative to the glycerol ester, see FIG. 19, Table 5, FIG. 20, Table 6 and FIG. 21, Table 7. […] DSC analysis was conducted within the temperature range −80° C. to 40° C. with cyclic cooling and heating rates of 5° C./min. The DSC melt thermograms for each material were integrated as a function of temperature and normalized to the overall melt enthalpy to generate a percent solids index that is the basis for the data in the Solids @ Onset+T columns. The data under Solids @ Onset+5 and +10° C. are indicative of the percent of solids in a base oil when heating from a fully solid or crystalline state. […] Both glycerol and TMP esters show higher degrees of undercooling and higher melt enthalpies compared to analogous propoxylated glycerol esters, see FIG. 20, Table 6.

Structure (SMILES) | Oxidative Onset Temperature (OOT) after formulation ([1]; formulated) | Oxidative Onset Temperature (OOT) ([1]; unformulated) [°C] | percent solid at 5° C. above the onset of crystallization temperature [2] [%] | percent solid at 10° C. above the crystallization onset temperature [2] | percent solid at 10° C. above the crystallization onset temperature ([2]; listed as Ex. 92) | percent solid at 10° C. above the crystallization onset temperature ([2]; listed as Ex 90) [%]
CCCCCCCC/C=C\CCCCCCCC(=O)OCC(CC)(COC(=O)CCCCCCC/C=C\CCCCCCCC)COC(=O)CCCCCCC/C=C\CCCCCCCC [TMP trioleates] | up to 206 °C | 156 |  |  |  | 
CCCCCCCCCCCC(=O)OCC(COC(=O)CCCCCCCCCCC)OC(=O)CCCCCCCCCCC [Example 92] |  |  | 100 | significant amounts of crystalline solids | not melted at all | 
CCCCCCCCCCCC(=O)OCC(CC)(COC(=O)CCCCCCCCCCC)COC(=O)CCCCCCCCCCC [Example 90] |  |  | 81 | significant amounts of crystalline solids |  | 46
